In ChEMBL document CHEMBL5352447, “Development of [1,2]oxazoloisoindoles tubulin polymerization inhibitors: Further chemical modifications and potential therapeutic effects against lymphomas” (Eur J Med Chem, 2022):

Columns and labels:
HL-60(TB) = assay: Antiproliferative activity against human HL-60(TB) cells assessed as cell growth inhibition incubated for 72 hrs by MTT assay; assay type: functional
MOLT-4 = assay: Antiproliferative activity against human MOLT-4 cells assessed as cell growth inhibition incubated for 72 hrs by MTT assay; assay type: functional
A549 = assay: Antiproliferative activity against human A549 cells assessed as cell growth inhibition incubated for 72 hrs by MTT assay; assay type: functional
EKVX = assay: Antiproliferative activity against human EKVX cells assessed as cell growth inhibition incubated for 72 hrs by MTT assay; assay type: functional
HOP-92 = assay: Antiproliferative activity against human HOP-92 cells assessed as cell growth inhibition incubated for 72 hrs by MTT assay; assay type: functional
NCI-H226 = assay: Antiproliferative activity against human NCI-H226 cells assessed as cell growth inhibition incubated for 72 hrs by MTT assay; assay type: functional
HCC 2998 = assay: Antiproliferative activity against human HCC 2998 cells assessed as cell growth inhibition incubated for 72 hrs by MTT assay; assay type: functional
HCT-15 = assay: Antiproliferative activity against human HCT-15 cells assessed as cell growth inhibition incubated for 72 hrs by MTT assay; assay type: functional
HT-29 = assay: Antiproliferative activity against human HT-29 cells assessed as cell growth inhibition incubated for 72 hrs by MTT assay; assay type: functional
SW-620 = assay: Antiproliferative activity against human SW620 cells assessed as cell growth inhibition incubated for 72 hrs by MTT assay; assay type: functional
SF-268 = assay: Antiproliferative activity against human SF-268 cells assessed as cell growth inhibition incubated for 72 hrs by MTT assay; assay type: functional
SF-539 = assay: Antiproliferative activity against human SF-539 cells assessed as cell growth inhibition incubated for 72 hrs by MTT assay; assay type: functional
U-251 = assay: Antiproliferative activity against human U-251 cells assessed as cell growth inhibition incubated for 72 hrs by MTT assay; assay type: functional
UACC-62 = assay: Antiproliferative activity against human UACC-62 cells assessed as cell growth inhibition incubated for 72 hrs by MTT assay; assay type: functional
OVCAR-3 = assay: Antiproliferative activity against human OVCAR-3 cells assessed as cell growth inhibition incubated for 72 hrs by MTT assay; assay type: functional
RXF 393 = assay: Antiproliferative activity against human RXF 393 cells assessed as cell growth inhibition incubated for 72 hrs by MTT assay; assay type: functional
TK-10 = assay: Antiproliferative activity against human TK-10 cells assessed as cell growth inhibition incubated for 72 hrs by MTT assay; assay type: functional
SU-DHL10 = assay: Antiproliferative activity against human SU-DHL-10 cells assessed as proliferating cells at 1 uM incubated for 72 hrs by MTT assay relative to control; assay type: functional
K562 = assay: Antiproliferative activity against human K562 cells assessed as cell growth inhibition incubated for 72 hrs by MTT assay; assay type: functional
CAKI-1 = assay: Antiproliferative activity against human CAKI-1 cells assessed as cell growth inhibition incubated for 72 hrs by MTT assay; assay type: functional
T47D = assay: Antiproliferative activity against human T47D cells assessed as cell growth inhibition incubated for 72 hrs by MTT assay; assay type: functional
MCF7 = assay: Cytotoxicity against human MCF7 cells assessed as cell growth inhibition; assay type: functional, cell-based
Tubulin = assay: Inhibition of tubulin assembly (unknown origin); assay type: protein-complex assay, Homo sapiens
Tubulin (Homo sapiens) = Tubulin (Homo sapiens) (UniProt P68371+Q9H4B7+P0DPH7+P68366+Q13509+Q71U36+P04350+Q3ZCM7+P07437+P68363+Q9BQE3+Q6PEY2+Q13885+Q9BVA1+Q9BUF5); assay: Inhibition of [3H]Colchicine binding to tubulin (unknown origin) at 5 uM relative to control; assay type: protein-complex assay

Compound | GI50 (HL-60(TB)) [nM] | GI50 (MOLT-4) [nM] | GI50 (A549) [nM] | GI50 (EKVX) [nM] | GI50 (HOP-92) [nM] | GI50 (NCI-H226) [nM] | GI50 (HCC 2998) [nM] | GI50 (HCT-15) [nM] | GI50 (HT-29) [nM] | GI50 (SW-620) [nM] | GI50 (SF-268) [nM] | GI50 (SF-539) [nM] | GI50 (U-251) [nM] | GI50 (UACC-62) [nM] | GI50 (OVCAR-3) [nM] | GI50 (RXF 393) [nM] | GI50 (TK-10) [nM] | Activity (SU-DHL10) [%] | GI50 (K562) [nM] | GI50 (T47D) [nM] | further results
COc1ccc(Cn2cc3c(c2-c2cc(OC)c(OC)c(OC)c2)CCc2c(CO)noc2-3)cc1 | 210 | 440 | 420 | 510 | 3390 | 15000 | 1340 | 260 | 320 | 370 | 1060 | 230 | 330 | 250 | 220 | 160 | 17700 | 62.1 |  |  | 
COc1ccc(Cn2cc3c(c2-c2cc(OC)c(OC)c(OC)c2)CCc2c(CN4CCOCC4)noc2-3)cc1 | 390 | 3060 | 1130 | 1400 | 900 | 890 | 2170 | 510 | 640 | 430 | 780 | 440 | 880 | 610 |  | 290 | > 100000 | 0.7 | 430 | > 100000 | GI50 (CAKI-1): 380 nM; IC50 (MCF7): 470 nM; IC50 (Tubulin): 1000 nM; inhibition (Tubulin (Homo sapiens)): 33%
COc1ccc(Cn2cc3c(c2-c2cc(OC)c(OC)c(OC)c2)CCc2c(CN4CCCC4)noc2-3)cc1 | 320 | 1470 | 1330 | 2110 | 1350 | 2070 | 1840 | 480 | 400 | 540 | 3150 | 750 | 540 | 550 |  | 890 | 23400 | 0.3 | 350 | 2650 | GI50 (CAKI-1): 450 nM; IC50 (MCF7): 1100 nM; IC50 (Tubulin): 2800 nM; inhibition (Tubulin (Homo sapiens)): 24%
CCOC(=O)c1noc2c1CCc1c-2cn(Cc2ccc(OC)cc2)c1-c1cc(OC)c(OC)c(OC)c1 | 450 | 2700 | 3800 | 3920 | 2720 | > 100000 | 5170 | 500 | 850 | 500 | 8070 | 1840 | 540 | 2740 | 370 | 2170 | > 100000 | 59 |  | > 100000 | 
